From patent US20140045724A1, “FORMULATION SCREENING METHODS, APPARATUSES FOR PERFORMING SUCH METHODS AND FORMULATIONS FORMED BY SUCH METHODS” (priority 2012, published 2014)

Assay: Kinetic gradient concentration study in water
Format: physicochemical
Conditions: CBZ gradient 0.01-0.64 w/v %
Procedure: CBZ-Ethanol solution was dispensed into 10 columns of wells in a 96-well microplate as follows: row A (80 μL @ 1 mg/mL; 80 μg API); row B (100 μL @ 2 mg/mL; 200 μg); row C (100 μL @ 4 mg/mL; 400 μg); row D (100 μL @ 6 mg/mL; 600 μg); row E (100 μL @ 8 mg/mL; 800 μg); row F (100 μL @ 20 mg/mL; 2 mg); row G (2×100 μL @ 20 mg/mL; 4 mg); row H (4×100 μL @ 20 mg/mL; 8 mg). Thus, a first-pass filling of the wellplate was conducted. The wellplate was placed on a centrivap and the solvent stripped at ambient temperature for ˜4 hours. The wells in rows G and H were refilled with CBZ solution, and the solvent stripped at ambient temperature for ˜1 hour, resulting in a net CBZ charge to rows G and H of 4 mg per well. This procedure was repeated twice for row H, resulting in a net CBZ charge of 8 mg per well. […] To the wells in columns 1 through 10 were charged the appropriate excipient, surfactant, and HPBCD solutions (4 mg/mL; 25 or 80 μL 5% Ethanol solution) that were previously determined in Example 1. Additional 5% Ethanol solvent was added to the wells to give 200 μL total liquid. The solvent (200 μL) was also charged to wells in column 11 (API control) and 12 (solvent only). […]
The microplate was inverted before scanning through the film on a UV-VIS microplate reader (600-900 nm, 2-nm step size; transmittance). […]

NC(=O)N1c2ccccc2C=Cc2ccccc21 [control, carbamazepine]
kinetically stable API concentration, sonicated microplate (sonicated wellplate): 0.02 w/v %
kinetically stable API concentration, unsonicated microplate (unsonicated wellplate): 0.02 w/v %
